The source of these data is patent publication US4241063A, “Purine derivatives and their use as bronchodilators” (Bristol-Myers Company, priority 1979, dated 1980).

SMILES strings stand for the structures. In brackets after ≈: the same amount, converted by molar mass. Where two headings read alike, the source gives them in different places.

In data set [1] the test system is intratracheal pressure (ITP) in the guinea pig. As to the kind of experiment: In vivo bronchodilator activity: decrease in intratracheal pressure (ITP) in anesthetized guinea pig. The settings on record: for ED50: Cavia porcellus, read-out: ITP ED50 (dose resulting in a 50% decrease in intratracheal pressure). How it is done: (§1) The trachea of anesthetized guinea pig was cannulated and the ITP recorded on a polygraph under artificial ventilation. Arterial blood pressure (ABP; reflecting hypotensive activity) was also measured during the experiment. Either intravenous or intraduodenal routes of administration are used. […] The ratio of hypotensive ED20 /bronchodilating ED50 reflects an assessment of the separation of desirable bronchodilator activity from undesirable cardiovascular (hypotensive) effect in the compounds.

In data set [2] the test system is Tracheal chains of guinea pig. Kind of data set: In vitro bronchodilator activity (guinea pig tracheal chain relaxation, Magnus method). The settings on record: Cavia porcellus, read-out: EC50 (concentration producing a relaxation which is 50% of the maximum response to 0.1 mcg./ml. of isoproterenol), relative to maximum response to 0.1 mcg./ml. isoproterenol. In kind it is cell-based. How it is done: Tracheal chains of guinea pig were prepared by the method of A. Akcasu, Arch. Int. Pharmacodyn. […] The response to each test compound was recorded by the Magnus method and expressed as a percentage of the maximum response obtained with 0.1 mcg./ml. of isoproterenol prior to each experiment.

For data set [3], the system named is Arterial blood pressure (ABP). Kind of data set: In vivo hypotensive activity: arterial blood pressure (ABP) in anesthetized guinea pig. On the procedure:
as §1

In general, ED50 refers to the dose that gives a 50% effect, or the effect in half of the subjects. Regarding `COc1nc(N)c2ncn(C3CCCCO3)c2n1` (centres unmarked) [Example 2, 2-Methoxy-9-(tetrahydropyran-2-yl)-9H-adenine], the ED50 in data set [1] (intravenous) came out at 2.2 mg/kg. In addition, the EC50 in data set [2] is greater than 3 µg/mL. Also, the “ABP ED20 (dose which reduces arterial blood pressure by 20%)” value in data set [3] (intravenous) was greater than 1 mg/kg.
Regarding `CCCOc1nc(N)c2ncn(C3CCCCO3)c2n1` (centres unmarked) [Example 3, 2-n-Propoxy-9-(tetrahydropyran-2-yl)-9H-adenine], the ED50 in data set [1] (intraduodenal) was determined as 1.4 mg/kg; in data set [1] (intravenous) it was 0.26 mg/kg. Besides, the “Ratio ABP/ITP (hypotensive ED20/bronchodilating ED50)” value in data set [1] (intraduodenal) was determined as 9.6; in data set [1] (intravenous) it was 7.3. In addition, the EC50 in data set [2] turned out to be 0.17 µg/mL (≈ 0.613 µM). Also, the “ABP ED20 (dose which reduces arterial blood pressure by 20%)” value in data set [3] (intraduodenal) came out at 13.5 mg/kg; in data set [3] (intravenous), 1.9 mg/kg.
Regarding `Cn1c(=O)c2[nH]cnc2n(C)c1=O` [Aminophylline, reference compound], in data set [3] (intravenous), the “ABP ED20 (dose which reduces arterial blood pressure by 20%)” value was 1.4 mg/kg.
As to `Nc1nc(Cl)nc2c1ncn2C1CCCCO1` (centres unmarked) [Example 1, 2-Chloro-9-(tetrahydropyran-2-yl)-9H-adenine], the ED50 in data set [1] (intravenous) was 0.23 mg/kg. Moreover, the EC50 in data set [2] stood at 0.45 µg/mL (≈ 1.77 µM). Also, in data set [3] (intravenous), the “ABP ED20 (dose which reduces arterial blood pressure by 20%)” value was greater than 1 mg/kg.
